The record followed here is PMC5876303, “Discovery of C-3 Tethered 2-oxo-benzo[1,4]oxazines as Potent Antioxidants: Bio-Inspired Based Design, Synthesis, Biological Evaluation, Cytotoxic, and in Silico Molecular Docking Studies” (Frontiers in Chemistry, 2018).

Molecules are shown by their SMILES. Entries after “also recorded” stand apart in the source; their conditions may differ.

Series [1] can be described thus: DPPH radical scavenging antioxidant assay. The class given is biochemical. As to conditions: Table 1; mean ± SD, n = 3; 517 nm after 20 min. As to the method: In DPPH radical scavenging method the plant extract (0.75 mL) at different concentrations ranging from 10 to 100 μg mL^−1 was mixed with 1.5 mL of a DPPH methanolic solution (20 mg L^−1). Pure methanol was taken as control and ascorbic acid (vitamin C), vitamins A and E were used as a reference compounds. The absorbance was measured at 517 nm after 20 min of reaction. The % of DPPH decolouration of the sample was calculated according to the formula (Sharma and Bhat, [2009]).
Decolouration % = [1−(Abs SAMPLE/Abs CONTROL)]×100
The decolouration was plotted against the sample extract concentration and a logarithmic regression curve was established in order to calculate the IC50. The results are expressed as antiradical efficiency (AE), which is 1000-fold inverse of the IC50 value AE=1000/ IC50.
On the technique in general: DPPH is a stable violet radical that fades when it is reduced.

Series [2] is described as follows: Ferric reducing antioxidant power (FRAP) assay. The class given is biochemical. As to conditions: for FRAP assay (C0.5FRAP): mean ± SD, n = 3, concentration equivalent to FeSO4 at 0.5 mmol/L, 37°C, 30 min, 593 nm; for FRAP potency compared with standard reference BHT: in words, BHT C0.5FRAP = 546.0 ± 13.6 μM. The protocol: The FRAP reagent was prepared by the addition of freshly prepared 20.0 mM FeCl3.6H2O solution, 10.0 mM of […] (TPTZ) solution and 300 mM sodium acetate buffer (pH 3.6) in a ratio of 1:1:10 (v/v/v). After that, Sample (our synthesized 2-oxo-2-phenylethylidenes-linked 2-oxo-benzo[1,4]oxazines 20a-ab) was added to 3 ml of freshly prepared FRAP reagent and this reaction mixture was incubated at 37°C temperature for 30 min. and the absorbance was measured at 593 nm. It is also noted that, a freshly prepared solution of FeSO4 was used for calibration of standard curve. The FRAP antioxidant capability were evaluated in terms of C0.5FRAP (the antioxidant capability of samples related to their concentration, which is equivalent to that of FeSO4 at 0.5 mmol/L) (Benzie and Strain, [1996]).
The FRAP assay was deliberated using the method as illustrated by Benzie and Strain (Benzie and Strain, [1996]). […] The reducing nature of an antioxidant depends on their property to donate a hydrogen atom for the breaking of the free radical chain, which is responsible for oxidative stress etc.

In series [1], `O=C1O[C@H]([C@@H](O)CO)C(O)=C1O` [Ascorbic acid, reference compound] had a DPPH assay IC50 of 4.57 µg/mL.

Regarding `Cc1cc(C(C)(C)C)c(O)c(C(C)(C)C)c1` [BHT, reference compound], the “FRAP assay (C0.5FRAP)” value in series [2] amounted to 546.0 ± 13.6 µM.

Molecule `O=C1Oc2ccccc2N/C1=C\C(=O)c1ccccc1` [Compound 20a, (Z)-3-(2-oxo-2-phenylethylidene)-3,4-dihydro-2H-benzo[b][1,4]oxazin-2-one] had a DPPH assay IC50 in series [1] of 10.2 ± 0.08 µg/mL. Further, in series [2], the “FRAP potency compared with standard reference BHT” value is on record as “less active than BHT” and the “FRAP assay (C0.5FRAP)” value is 611.5 ± 23.2 µM.

On to `O=C1Oc2cc([N+](=O)[O-])ccc2N/C1=C\C(=O)c1ccc(Br)cc1` [Compound 20aa, (Z)-3-(2-(4-bromophenyl)-2-oxoethylidene)-7-nitro-3,4-dihydro-2H-benzo[b][1,4]oxazin-2-one], for which the melting point (in general, the temperature, or range, at which the solid turns liquid) lay within 230 to 232 °C. Also, in series [1], the DPPH assay IC50 was 28.37 ± 0.16 µg/mL. In series [2], the “FRAP potency compared with standard reference BHT” value is given as “more potent than standard reference BHT” and the “FRAP assay (C0.5FRAP)” value was found to be 518.6 ± 17.6 µM.

`COc1ccc(C(=O)/C=C2\Nc3ccc([N+](=O)[O-])cc3OC2=O)cc1` [Compound 20ab, (Z)-3-(2-(4-methoxyphenyl)-2-oxoethylidene)-7-nitro-3,4-dihydro-2H-benzo[b][1,4]oxazin-2-one] displayed a DPPH assay IC50 in series [1] of 43.6 ± 0.74 µg/mL.

As to `O=C1Oc2ccc(Cl)cc2N/C1=C\C(=O)c1ccccc1` [Compound 20c, (Z)-6-chloro-3-(2-oxo-2-phenylethylidene)-3,4-dihydro-2H-benzo[b][1,4]oxazin-2-one], the melting point lay in the range of 185 to 187 °C. This molecule also gave a DPPH assay IC50 in series [1] of 28.8 ± 0.6 µg/mL. In series [2], the “FRAP potency compared with standard reference BHT” value is given as “greater potency; also recorded: more potent than standard reference BHT” and the “FRAP assay (C0.5FRAP)” value was 467.8 ± 22.4 µM.

For the molecule `O=C1Oc2ccc(Cl)cc2N/C1=C\C(=O)c1ccc(F)cc1` [Compound 20d, (Z)-6-chloro-3-(2-(4-fluorophenyl)-2-oxoethylidene)-3,4-dihydro-2H-benzo[b][1,4]oxazin-2-one], the melting point lay within 155 to 157 °C. Moreover, in series [1], the DPPH assay IC50 was 45.2 ± 0.92 µg/mL. In addition, the “FRAP assay (C0.5FRAP)” value in series [2] is 732.7 ± 41.6 µM.

For the molecule `O=C1Oc2ccc(Cl)cc2N/C1=C\C(=O)c1ccc(Cl)cc1` [Compound 20e, (Z)-6-chloro-3-(2-(4-chlorophenyl)-2-oxoethylidene)-3,4-dihydro-2H-benzo[b][1,4]oxazin-2-one], the melting point fell in the range of 182 to 185 °C. Moreover, in series [1], the DPPH assay IC50 stood at 92.2 ± 1.54 µg/mL.

Take `O=C1Oc2ccc(Cl)cc2N/C1=C\C(=O)c1ccc(Cl)cc1Cl` [Compound 20f, (Z)-6-chloro-3-(2-(2,4-dichlorophenyl)-2-oxoethylidene)-3,4-dihydro-2H-benzo[b][1,4]oxazine-2-One]: the melting point lay in the range of 135 to 137 °C. The DPPH assay IC50 in series [1] is 56.6 ± 1.12 µg/mL.

`O=C1Oc2ccc(Cl)cc2N/C1=C\C(=O)c1ccc(Br)cc1` [Compound 20g, (Z)-3-(2-(4-bromophenyl)-2-oxoethylidene)-6-chloro-3,4-dihydro-2H-benzo[b][1,4]oxazin-2-one] showed a melting point of 175 to 177 °C. The molecule further registered a DPPH assay IC50 in series [1] of 61.2 ± 1.23 µg/mL. The “FRAP assay (C0.5FRAP)” value in series [2] was 798.6 ± 32.5 µM.

Take `Cc1ccc(C(=O)/C=C2\Nc3cc(Cl)ccc3OC2=O)cc1` [Compound 20h, (Z)-6-chloro-3-(2-oxo-2-(p-tolyl)ethylidene)-3,4-dihydro-2H-benzo[b][1,4]oxazin-2-one]: the melting point was 160 to 162 °C. In series [1], the DPPH assay IC50 is 44.8 ± 0.81 µg/mL. Further, in series [2], the “FRAP assay (C0.5FRAP)” value was 821.9 ± 38.7 µM.

As for `COc1ccc(C(=O)/C=C2\Nc3cc(Cl)ccc3OC2=O)cc1` [Compound 20i, (Z)-6-chloro-3-(2-(4-methoxyphenyl)-2-oxoethylidene)-3,4-dihydro-2H-benzo[b][1,4]oxazin-2-one], the DPPH assay IC50 in series [1] turned out to be 34.9 ± 0.73 µg/mL. For the same molecule, in series [2], the “FRAP assay (C0.5FRAP)” value stood at 648.2 ± 29.5 µM.

In series [1], `Cc1ccc2c(c1)N/C(=C\C(=O)c1ccc(F)cc1)C(=O)O2` [Compound 20j, (Z)-3-(2-(4-fluorophenyl)-2-oxoethylidene)-6-methyl-3,4-dihydro-2H-benzo[1,4]oxazin-2-one] displayed a DPPH assay IC50 of 34.4 ± 0.7 µg/mL. In series [2], the “FRAP potency compared with standard reference BHT” value is listed as “more potent than standard reference BHT” and the “FRAP assay (C0.5FRAP)” value worked out at 502.6 ± 18.2 µM.

With `COc1ccc(C(=O)/C=C2\Nc3cc(C)ccc3OC2=O)cc1` [Compound 20l, (Z)-3-[2-(4-methoxy-phenyl)-2-oxo-ethylidene]-6-methyl-3,4-dihydro-benzo[1,4]oxazin-2-one], the melting point fell in the range of 180 to 182 °C. For the same molecule, in series [1], the DPPH assay IC50 stood at 43.8 ± 0.85 µg/mL.

For the molecule `Cc1cc(Br)c2c(c1)N/C(=C\C(=O)c1ccccc1)C(=O)O2` [Compound 20m, (Z)-8-bromo-6-methyl-3-(2-oxo-2-phenylethylidene)-3,4-dihydro-2H-benzo[b][1,4]oxazin-2-one], the DPPH assay IC50 in series [1] stood at 24.4 ± 0.46 µg/mL. In series [2], the “FRAP potency compared with standard reference BHT” value is given as “greater potency; also recorded: more potent than standard reference BHT” and the “FRAP assay (C0.5FRAP)” value turned out to be 536.7 ± 21.4 µM.

`Cc1cc(Br)c2c(c1)N/C(=C\C(=O)c1ccc(F)cc1)C(=O)O2` [Compound 20n, (Z)-8-bromo-3-(2-(4-fluorophenyl)-2-oxoethylidene)-6-methyl-3,4-dihydro-2H-benzo[b][1,4] oxazin-2-one] gave a DPPH assay IC50 in series [1] of 16.9 ± 0.72 µg/mL. Further, in series [2], the “FRAP potency compared with standard reference BHT” value was “more potent than standard reference BHT” and the “FRAP assay (C0.5FRAP)” value was determined as 482.5 ± 35.5 µM.

`Cc1cc(Br)c2c(c1)N/C(=C\C(=O)c1ccc(Cl)cc1Cl)C(=O)O2` [Compound 20o, (Z)-8-bromo-3-(2-(2,4-dichlorophenyl)-2-oxoethylidene)-6-methyl-3,4-dihydro-2H-benzo [b][1,4]oxazin-2-one] returned a DPPH assay IC50 in series [1] of 22.5 ± 0.64 µg/mL. Also, the “FRAP assay (C0.5FRAP)” value in series [2] amounted to 641.6 ± 28.7 µM.

`Cc1ccc(C(=O)/C=C2\Nc3cc(C)cc(Br)c3OC2=O)cc1` [Compound 20q, (Z)-8-bromo-6-methyl-3-(2-oxo-2-(p-tolyl)ethylidene)-3,4-dihydro-2H-benzo[b][1,4]oxazin-2-one] registered a melting point of 219 to 220 °C. In series [1], this molecule had a DPPH assay IC50 of 36.24 ± 0.27 µg/mL.

On to `Cc1ccc2c(c1)N/C(=C\C(=O)c1ccc([N+](=O)[O-])cc1)C(=O)O2` [Compound 20r, (Z)-6-methyl-3-(2-(4-nitrophenyl)-2-oxoethylidene)-3,4-dihydro-2H-benzo[1,4]oxazin-2-one], for which the DPPH assay IC50 in series [1] was 12.23 ± 0.05 µg/mL. Besides, in series [2], the “FRAP potency compared with standard reference BHT” value is recorded as “potent activity than BHT; also recorded: more potent than standard reference BHT” and the “FRAP assay (C0.5FRAP)” value was 328.6 ± 25.8 µM.

`COc1ccc(C(=O)/C=C2\Nc3cc([N+](=O)[O-])ccc3OC2=O)cc1` [Compound 20v, (Z)-3-(2-(4-methoxyphenyl)-2-oxoethylidene)-6-nitro-3,4-dihydro-2H-benzo[b][1,4]oxazin-2-one] came in with a melting point of 195 to 197 °C. In addition, the DPPH assay IC50 in series [1] was 43.6 ± 0.92 µg/mL.
